The target of the test is T1, Thermolysin (Bacillus thermoproteolyticus, UniProt P00800).
T1 construct: gene npr
Briefly: TIMES (label-free, immobilization-free microfluidic electronic detection), […] Tris-HCl buffer pH […]. The format is binding. The conditions noted are these: read-out: Measured KD from TIMES.

Each structure is given as a SMILES string.

T1 sequence (P00800 233-548): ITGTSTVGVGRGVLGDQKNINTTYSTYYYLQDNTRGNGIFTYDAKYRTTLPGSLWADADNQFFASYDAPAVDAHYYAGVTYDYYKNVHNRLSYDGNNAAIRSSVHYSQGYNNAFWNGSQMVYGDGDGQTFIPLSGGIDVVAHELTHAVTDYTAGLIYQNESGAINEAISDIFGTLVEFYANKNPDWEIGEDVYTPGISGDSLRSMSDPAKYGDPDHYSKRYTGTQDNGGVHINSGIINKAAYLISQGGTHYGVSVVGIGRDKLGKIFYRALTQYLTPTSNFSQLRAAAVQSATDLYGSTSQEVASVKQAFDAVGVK

As usually defined, the Kd is the equilibrium constant for the complex coming apart. Regarding `CC(C)C[C@H](NP(=O)(O)O[C@@H]1O[C@@H](C)[C@H](O)[C@@H](O)[C@H]1O)C(=O)N[C@@H](Cc1c[nH]c2ccccc12)C(=O)O` [phosphoramidon], the Kd was determined as 32.1 ± 1.9 nM.
